Reference: PubChem BioAssay (NCI)
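Five concentrations, 48 hours, 96-well plates. TGI marks complete inhibition of growth.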

Assays:
Test in all cases: NCI anticancer screen, dose series, 48 h
[1] = tested on: 786-0 renal
[2] = tested on: A498 renal
[3] = tested on: A549 NSCLC
[4] = tested on: ACHN renal
[5] = tested on: BT-549 breast
[6] = tested on: CAKI-1 renal
[7] = tested on: CCRF-CEM leukemia
[8] = tested on: COLO 205 colon
[9] = tested on: DU-145 prostate
[10] = tested on: EKVX NSCLC
[11] = tested on: HCC-2998 colon
[12] = tested on: HCT-116 colon
[13] = tested on: HCT-15 colon
[14] = tested on: HL-60(TB) leukemia
[15] = tested on: HOP-62 NSCLC
[16] = tested on: HOP-92 NSCLC
[17] = tested on: HS 578T breast
[18] = tested on: HT29 colon
[19] = tested on: IGROV1 ovarian
[20] = tested on: K-562 leukemia
[21] = tested on: KM12 colon
[22] = tested on: LOX IMVI melanoma
[23] = tested on: M14 melanoma
[24] = tested on: MALME-3M melanoma
[25] = tested on: MCF7 breast
[26] = tested on: MDA-MB-231 breast
[27] = tested on: MDA-MB-435
[28] = tested on: MDA-N
[29] = tested on: MOLT-4 leukemia
[30] = tested on: NCI-H226 lung
[31] = tested on: NCI-H23 lung
[32] = tested on: NCI-H460 lung
[33] = tested on: NCI-H522 lung
[34] = tested on: NCI/ADR-RES ovarian
[35] = tested on: OVCAR-3 ovarian
[36] = tested on: OVCAR-4 ovarian
[37] = tested on: OVCAR-5 ovarian
[38] = tested on: OVCAR-8 ovarian
[39] = tested on: PC-3 prostate
[40] = tested on: RPMI-8226 leukemia
[41] = tested on: RXF 393 renal
[42] = tested on: SF-268 CNS
[43] = tested on: SF-295 CNS
[44] = tested on: SF-539 CNS
[45] = tested on: SK-MEL-2 melanoma
[46] = tested on: SK-MEL-28 melanoma
[47] = tested on: SK-MEL-5 melanoma
[48] = tested on: SK-OV-3 ovarian
[49] = tested on: SN12C renal
[50] = tested on: SNB-19 CNS
[51] = tested on: SNB-75 CNS
[52] = tested on: SR leukemia
[53] = tested on: SW-620 colon
[54] = tested on: T-47D breast
[55] = tested on: TK-10 renal
[56] = tested on: U251 CNS
[57] = tested on: UACC-257 melanoma
[58] = tested on: UACC-62 melanoma
[59] = tested on: UO-31 renal

Measured: TGI

C[C@H](Nc1nc(N)c(N=O)c(=O)n1C)C(=O)O
not listed: [59]
> 10 µM: all other assays above

C#CC1(O)CCC2[C@@H]3CCc4cc(Oc5nc(F)nc(-c6c(C)c(C(=O)OCC)n7ccccc67)n5)ccc4C3CC[C@@]21C (some centres not stated)
> 100 µM: all assays above
